{
  "source": "patent US9642859B2",
  "about": "“Use of capsazepine and analogs thereof to treat cancer” (THE BOARD OF REGENTS OF THE UNIVERSITY OF TEXAS SYSTEM, priority 2012, dated 2017)",
  "key": {"[1]": {"system": "OSCC cell lines (HSC3, SCC4, and SCC25)", "assay": "Apoptosis studies, microscopic analysis of OSCC cells", "format": "cell-based, human", "conditions": "CPZ 30, 60 or 90 μM, 24 hrs", "method": "FIGS. 1E-1, 1E-2, and 1E-3. […] In FIG. 1E-1, magnifications of (from left to right) vehicle control HSC3 cells (a) and HSC3 cells treated with 30 μM CPZ (b), 60 μM CP(c), or 90 μM CPZ(d). In FIG. 1E-2, magnifications of (from left to right) vehicle control SCC4 cells (a) and SCC4 cells treated with 30 μM CPZ (b), 60 μM CPZ (c), 90 μM CPZ (d), while, in FIG. 1E-3, magnifications of (from left to right) vehicle control SCC25 cells (a) and SCC25 cells treated with 30 μM CPZ (b), 60 μM CPZ (c), or 90 μM CPZ (d).\nTo determine if reduced cell viability was due to apoptosis, flow-sort analysis and microscopic analysis of cells in three OSCC cell lines (HSC3, SCC4, and SCC25) following treatment were performed. […] (Compare FIGS. 1E-1(b) to (d), FIGS. 1E-2(b)-(d), and FIGS. 1E-3(b) to (d) with FIG. 1E-1(a), FIG. 1E-2(a), and FIG. 1E-3(a), respectively.)"}, "[2]": {"system": "OSCC cell lines (HSC3, SCC4, and SCC25)", "protocol": "Cell viability assays reported as % of vehicle control (n=3). […] VEH=delivery vehicle control without CAP or CPZ. *p<0.05, ***p<0.001.\nFIG. 1H-1: Cell viability assays of OSCC cell lines treated with 30 μM CPZ alone or in combination with 10 mM N-Acetyl-L-Cysteine (NAC) for 24 h (n=4); ***p<0.001.\nHuman OSCC Cell Lines. The human OSCC cell lines MDA231, PS3, SCC4 and SCC25 were obtained from ATCC (American Type Culture Collection, Rockville, Md.). The HSC3 cell line was obtained from the Japanese Cell Resource Bank (Osaka, Japan). […] Cells were maintained in DMEM (GIBCO, Carlsbad, Calif.) supplemented with 10% FBS at 37° C. in 5% CO2. Both cell lines were derived from primary OSCC tumors from the tongues of male patients in their fifth generation of life. Data regarding pertinent medical history, treatment, outcome of care and recurrence were not available.\nStatistical Analysis. Statistical analyses were performed using GraphPad Prism4 (San Diego, Calif.). Experiments were performed in triplicate and results are represented as means+SD except when indicated. […] Cytotoxicity assays of cell viability were analyzed by one-way ANOVA and Bonferroni's post-hoc test (n=3)."}, "HSC3": {"system": "HSC3", "assay": "Cell cycle analysis by DNA profile FACS, HSC3", "format": "cell-based, human", "conditions": "24 hours", "method": "In particular, Table 1 provides additional cell cycle distribution data of OSCC cells (%) treated with 0 μM, 30 μM, 60 μM, or 90 μM CPZ for 24 hours. Data for OSCC cell lines HSC3, SCC4, and SCC25 are also provided in diagrams of FIGS. 1G-1, 1G-2, and 1G-3, respectively."}, "[3]": {"system": "immortalized human bronchiolar epithelial cell line transformed with a TRPV1 insert", "conditions": "TRPV1-overexpressing cultured cells; cited from earlier work"}, "[4]": {"assay": "Liver and kidney function tests of tumor bearing mice", "format": "in vivo", "conditions": "40 μg CPZ intra-tumoral every other day over 14 days", "method": "FIG. 14. Liver and kidney function tests of tumor bearing mice following two week treatment with either vehicle control (Control) or 40 μg CPZ in 40 μl Veh medium (1 μg/μl) injected directly into tumor every other day over 14 days (CPZ).\nTreatments. CPZ (5 mg) was diluted in 250 μl of 100% DMSO to yield a final concentration of 20 μg/μl of stock solution. Stock solution (100 m) was subsequently diluted in 7% DMSO in sterile saline generating a final concentration of 1 μg/μl. A total of 40 μg in 40 μl was injected intra-tumorally. Control xenografts were injected intra-tumorally with 40 μl of vehicle control (7% DMSO). Mice were monitored daily for tumor growth, cachexia, and weight loss. Tumor volumes and body weight were recorded every other day. Tumor volumes were calculated by the formula: (4π/3)×(w/2)2×(l/2), where w=width and l=length. Measurements were made using a digital caliper. […]\nAt the conclusion of the experiment, serum was collected for liver and kidney function analysis. […] Tumors were analyzed histologically using H&E (hematoxylin and eosin) and TUNEL (terminal deoxyribonucleotidyl transferase-mediated dUTP nick end labeling) staining for detection of DNA fragmentation associated with apoptosis, and apoptotic figures were quantified. […]"}, "[5]": {"system": "nicotinic acetylcholine receptors", "conditions": "cited from earlier work"}},
  "data": [
    {"smiles": "Oc1cc2c(cc1O)CN(C(=S)NCCc1ccc(Cl)cc1)CCC2", "note": "[CPZ, 2-[2-(4-chlorphenyl)ethylamino-thiocarbonyl]-7,8-dihydroxy-2,3,4,5-tetrahydro-1H-2-benzazepine]", "values": [
      {"measurement": "apoptosis", "setting": "[1]", "result": "undergo apoptosis"},
      {"measurement": "cytotoxicity", "setting": "[2]", "result": "significant dose dependent cytotoxicity"},
      {"measurement": "G0/G1", "setting": "HSC3; HSC3, CPZ 30 μM", "result": 47.76, "unit": "%"},
      {"measurement": "G2/M", "setting": "HSC3; HSC3, CPZ 30 μM", "result": 20.3, "unit": "%"},
      {"measurement": "S", "setting": "HSC3; HSC3, CPZ 30 μM", "result": 13.47, "unit": "%"},
      {"measurement": "SubG1", "setting": "HSC3; HSC3, CPZ 30 μM", "result": 18.47, "unit": "%"},
      {"measurement": "G0/G1", "setting": "HSC3; HSC3, CPZ 60 μM", "result": 24.09, "unit": "%"},
      {"measurement": "G2/M", "setting": "HSC3; HSC3, CPZ 60 μM", "result": 7.37, "unit": "%"},
      {"measurement": "S", "setting": "HSC3; HSC3, CPZ 60 μM", "result": 11.23, "unit": "%"},
      {"measurement": "SubG1", "setting": "HSC3; HSC3, CPZ 60 μM", "result": 57.31, "unit": "%"},
      {"measurement": "G0/G1", "setting": "HSC3; HSC3, CPZ 90 μM", "result": 23.53, "unit": "%"},
      {"measurement": "G2/M", "setting": "HSC3; HSC3, CPZ 90 μM", "result": 5.08, "unit": "%"},
      {"measurement": "S", "setting": "HSC3; HSC3, CPZ 90 μM", "result": 10.27, "unit": "%"},
      {"measurement": "SubG1", "setting": "HSC3; HSC3, CPZ 90 μM", "result": 61.12, "unit": "%"},
      {"measurement": "reversal of CAP-induced apoptosis by CPZ", "setting": "[3]", "result": "failed to reverse these effects"},
      {"measurement": "liver and kidney function", "setting": "[4]", "result": "No negative effects on liver or kidney function were detected"},
      {"measurement": "effect on nicotinic acetylcholine receptors", "setting": "[5]", "result": "Inhibitis"}
    ]}
  ]
}
